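GI50 is the concentration that inhibits growth by half. TGI is the concentration that stops growth completely.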
Tests used:
Test in all cases: NCI-60 cell line screen, 384-well format
OVCAR-3 ovarian = system: OVCAR-3 ovarian
SF-539 CNS = system: SF-539 CNS
SK-OV-3 ovarian = system: SK-OV-3 ovarian
OVCAR-8 ovarian = system: OVCAR-8 ovarian
MALME-3M melanoma = system: MALME-3M melanoma
HL-60(TB) leukemia = system: HL-60(TB) leukemia
UACC-257 melanoma = system: UACC-257 melanoma
SNB-19 CNS = system: SNB-19 CNS
PC-3 prostate = system: PC-3 prostate
HT29 colon = system: HT29 colon
SK-MEL-5 melanoma = system: SK-MEL-5 melanoma
HCT-116 colon = system: HCT-116 colon
SN12C renal = system: SN12C renal
MDA-MB-231 breast = system: MDA-MB-231 breast
UACC-62 melanoma = system: UACC-62 melanoma
BT-549 breast = system: BT-549 breast
HCT-15 colon = system: HCT-15 colon
HS 578T breast = system: HS 578T breast
NCI-H23 lung = system: NCI-H23 lung
NCI-H522 lung = system: NCI-H522 lung
OVCAR-5 ovarian = system: OVCAR-5 ovarian
M14 melanoma = system: M14 melanoma
SR leukemia = system: SR leukemia
UO-31 renal = system: UO-31 renal
EKVX NSCLC = system: EKVX NSCLC
RXF 393 renal = system: RXF 393 renal
HCC-2998 colon = system: HCC-2998 colon
SW-620 colon = system: SW-620 colon
COLO 205 colon = system: COLO 205 colon
TK-10 renal = system: TK-10 renal
HOP-62 NSCLC = system: HOP-62 NSCLC
ACHN renal = system: ACHN renal
LOX IMVI melanoma = system: LOX IMVI melanoma
MOLT-4 leukemia = system: MOLT-4 leukemia
HOP-92 NSCLC = system: HOP-92 NSCLC
U251 glioblastoma = system: U251 glioblastoma
NCI-H460 NSCLC = system: NCI-H460 NSCLC
RPMI-8226 leukemia = system: RPMI-8226 leukemia
NCI-H226 lung = system: NCI-H226 lung
A549 NSCLC = system: A549 NSCLC
DU-145 prostate = system: DU-145 prostate
OVCAR-4 ovarian = system: OVCAR-4 ovarian
MCF7 breast = system: MCF7 breast
SK-MEL-28 melanoma = system: SK-MEL-28 melanoma
KM12 colon = system: KM12 colon
CCRF-CEM leukemia = system: CCRF-CEM leukemia
SNB-75 CNS = system: SNB-75 CNS
SF-268 CNS = system: SF-268 CNS
786-0 renal = system: 786-0 renal
NCI-H322M lung = system: NCI-H322M lung
IGROV1 ovarian = system: IGROV1 ovarian
A498 renal = system: A498 renal
MDA-MB-435 melanoma = system: MDA-MB-435 melanoma
T-47D breast = system: T-47D breast
MDA-MB-468 breast = system: MDA-MB-468 breast
CAKI-1 renal = system: CAKI-1 renal
NCI/ADR-RES ovarian = system: NCI/ADR-RES ovarian
SF-295 CNS = system: SF-295 CNS

For `CNC(=O)c1c(C)oc2cc(Oc3ncnc4cc(OC)c(OC)cc34)ccc12`, the GI50 (OVCAR-3 ovarian) was over 100 µM, the TGI (OVCAR-3 ovarian) was over 100 µM and the GI50 (SF-539 CNS) was 10.2 µM. It also gave a TGI (SF-539 CNS) of over 100 µM, a GI50 (SK-OV-3 ovarian) of over 100 µM and a TGI (SK-OV-3 ovarian) of over 100 µM. The GI50 (OVCAR-8 ovarian) was over 100 µM, the TGI (OVCAR-8 ovarian) was over 100 µM and the GI50 (MALME-3M melanoma) was over 100 µM. It also gave a TGI (MALME-3M melanoma) of over 100 µM, a GI50 (HL-60(TB) leukemia) of over 100 µM and a TGI (HL-60(TB) leukemia) of over 100 µM. For the same compound, the GI50 (UACC-257 melanoma) was over 100 µM, the TGI (UACC-257 melanoma) was over 100 µM and the GI50 (SNB-19 CNS) was over 100 µM. For the same compound, the TGI (SNB-19 CNS) was over 100 µM, the GI50 (PC-3 prostate) was over 100 µM and the TGI (PC-3 prostate) was over 100 µM. For the same compound, the GI50 (HT29 colon) was over 100 µM, the TGI (HT29 colon) was over 100 µM and the GI50 (SK-MEL-5 melanoma) was over 100 µM. For the same compound, the TGI (SK-MEL-5 melanoma) was over 100 µM, the GI50 (HCT-116 colon) was over 100 µM and the TGI (HCT-116 colon) was over 100 µM. For the same compound, the GI50 (SN12C renal) was over 100 µM, the TGI (SN12C renal) was over 100 µM and the GI50 (MDA-MB-231 breast) was over 100 µM. The TGI (MDA-MB-231 breast) was over 100 µM, the GI50 (UACC-62 melanoma) was over 100 µM and the TGI (UACC-62 melanoma) was over 100 µM. The GI50 (BT-549 breast) was 11.5 µM, the TGI (BT-549 breast) was over 100 µM and the GI50 (HCT-15 colon) was over 100 µM. It also gave a TGI (HCT-15 colon) of over 100 µM, a GI50 (HS 578T breast) of 25.5 µM and a TGI (HS 578T breast) of over 100 µM. It also gave a GI50 (NCI-H23 lung) of over 100 µM, a TGI (NCI-H23 lung) of over 100 µM and a GI50 (NCI-H522 lung) of over 100 µM. The TGI (NCI-H522 lung) was over 100 µM, the GI50 (OVCAR-5 ovarian) was over 100 µM and the TGI (OVCAR-5 ovarian) was over 100 µM. The GI50 (M14 melanoma) was over 100 µM, the TGI (M14 melanoma) was over 100 µM and the GI50 (SR leukemia) was over 61.5 µM. The TGI (SR leukemia) was over 100 µM, the GI50 (UO-31 renal) was over 96.2 µM and the TGI (UO-31 renal) was over 100 µM. For the same compound, the GI50 (EKVX NSCLC) was over 100 µM, the TGI (EKVX NSCLC) was over 100 µM and the GI50 (RXF 393 renal) was over 21.9 µM. The TGI (RXF 393 renal) was over 100 µM, the GI50 (HCC-2998 colon) was over 100 µM and the TGI (HCC-2998 colon) was over 100 µM. For the same compound, the GI50 (SW-620 colon) was over 100 µM, the TGI (SW-620 colon) was over 100 µM and the GI50 (COLO 205 colon) was over 100 µM. For the same compound, the TGI (COLO 205 colon) was over 100 µM, the GI50 (TK-10 renal) was over 100 µM and the TGI (TK-10 renal) was over 100 µM. For the same compound, the GI50 (HOP-62 NSCLC) was over 100 µM, the TGI (HOP-62 NSCLC) was over 100 µM and the GI50 (ACHN renal) was over 100 µM. It also gave a TGI (ACHN renal) of over 100 µM, a GI50 (LOX IMVI melanoma) of over 100 µM and a TGI (LOX IMVI melanoma) of over 100 µM. It also gave a GI50 (MOLT-4 leukemia) of over 87.1 µM, a TGI (MOLT-4 leukemia) of over 100 µM and a GI50 (HOP-92 NSCLC) of over 87.5 µM. The TGI (HOP-92 NSCLC) was over 100 µM, the GI50 (U251 glioblastoma) was over 100 µM and the TGI (U251 glioblastoma) was over 100 µM. The GI50 (NCI-H460 NSCLC) was over 100 µM, the TGI (NCI-H460 NSCLC) was over 100 µM and the GI50 (RPMI-8226 leukemia) was over 71.1 µM. The TGI (RPMI-8226 leukemia) was over 100 µM, the TGI (NCI-H226 lung) was over 100 µM and the GI50 (A549 NSCLC) was over 100 µM. It also gave a TGI (A549 NSCLC) of over 100 µM, a GI50 (DU-145 prostate) of over 100 µM and a TGI (DU-145 prostate) of over 100 µM. For the same compound, the GI50 (OVCAR-4 ovarian) was over 100 µM, the TGI (OVCAR-4 ovarian) was over 100 µM and the GI50 (MCF7 breast) was over 100 µM. It also gave a TGI (MCF7 breast) of over 100 µM, a GI50 (SK-MEL-28 melanoma) of over 100 µM and a TGI (SK-MEL-28 melanoma) of over 100 µM. For the same compound, the GI50 (KM12 colon) was over 100 µM, the TGI (KM12 colon) was over 100 µM and the GI50 (CCRF-CEM leukemia) was over 100 µM. The TGI (CCRF-CEM leukemia) was over 100 µM, the GI50 (SNB-75 CNS) was 4.3 µM and the TGI (SNB-75 CNS) was over 29.4 µM. The GI50 (SF-268 CNS) was over 100 µM, the TGI (SF-268 CNS) was over 100 µM and the GI50 (786-0 renal) was over 100 µM. The TGI (786-0 renal) was over 100 µM, the GI50 (NCI-H322M lung) was over 100 µM and the TGI (NCI-H322M lung) was over 100 µM. The GI50 (IGROV1 ovarian) was over 100 µM, the TGI (IGROV1 ovarian) was over 100 µM and the GI50 (A498 renal) was over 100 µM. For the same compound, the TGI (A498 renal) was over 100 µM, the GI50 (MDA-MB-435 melanoma) was over 100 µM and the TGI (MDA-MB-435 melanoma) was over 100 µM. For the same compound, the GI50 (T-47D breast) was over 100 µM, the TGI (T-47D breast) was over 100 µM and the GI50 (MDA-MB-468 breast) was over 100 µM. It also gave a TGI (MDA-MB-468 breast) of over 100 µM, a GI50 (CAKI-1 renal) of over 100 µM and a TGI (CAKI-1 renal) of over 100 µM. It also gave a GI50 (NCI/ADR-RES ovarian) of over 100 µM, a TGI (NCI/ADR-RES ovarian) of over 100 µM and a GI50 (SF-295 CNS) of over 100 µM. It also gave a TGI (SF-295 CNS) of over 100 µM.

— PubChem BioAssay (NCI)
